This is an account of results in US9708314B2, “Heterocyclic amide compound” (NISSAN CHEMICAL INDUSTRIES, LTD., priority 2013, dated 2017).

Holding throughout (type): in vivo
One data set concerns Veronica persica. Nature of the data set: Test Example 4: herbicidal effect by application to foliage (diluvial soil, plastic box). The method, boiled down:
(§1)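 Greenhouse plants (25° C. to 30° C., 14 d, diluvial soil) receive a foliar spray of water-diluted emulsifiable formulation at defined g/ha. Grading after 3 weeks uses a six-step herbicidal-ratio scale, with 4 covering 70% to <90% and 1 covering 5% to <20%.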

For the next data set, the system named is Lolium multiflorum Lam. The description is as above. The method, boiled down: as §1
The subject of a further data set is Chenopodium album. The description is as above. The method, boiled down: as §1
Another data set has as its system Setaria viridis. Described as above. In outline:
as §1

A further data set concerns Apera spica-venti. Described as above. The method, boiled down: as §1
A further data set relates to Alopecurus myosuroides. The description is as above. The method, boiled down: as §1
Another data set concerns Digitaria ciliaris. Described as above. In outline:
as §1

In a further data set the test system is Avena fatua. The data set is described as above. The method, boiled down: as §1
The subject of another data set is Galium spurium. The data set is described as above. In outline: as §1
The subject of a further data set is Abutilon theophrasti. The description is as above. In outline:
as §1

Data set [1] has as its system Echinochloa crus-galli var. crus-galli. Described as above. The method, boiled down: as §1
Data set [2] relates to Echinochloa oryzacola Vasing. Nature of the data set: Test Example 1: herbicidal activity, application before weed generation in submerged conditions. Conditions: Application herbicide amount 320 g/ha; Seventeenth Table. The method, boiled down: (§2)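 Water-diluted emulsion formulation is applied onto flood water (4 cm deep) covering alluvial soil on the day weed seeds are sown, after transplanting 2.5 leaf stage rice. Rates are expressed per hectare. Injury or control is graded 0–5 three weeks later.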

In the next data set the test system is Scirpus juncoides. The description is as above. Conditions: Application herbicide amount 320 g/ha; Seventeenth Table. The method, boiled down: as §2
The subject of another data set is Monochoria vaginalis. The data set is described as above. Conditions: Application herbicide amount 320 g/ha; Seventeenth Table. The method, boiled down: as §2
The next data set concerns Zea mays. The experiment in a line: Test Example 4: effect on crop by application to foliage (diluvial soil, plastic box). The method, boiled down:
as §1

The subject of another data set is Triticum aestivum. The data set is described as above. In outline:
as §1

For data set [3], the system named is Beta vulgaris ssp. vulgaris. The description is as above. In outline: as §1
The test system of another data set is Glycine max. The description is as above. The method, boiled down: as §1
In a further data set the test system is Brassica campestris L. Described as above. In outline:
as §1

The test system of data set [4] is directly sowed Oryza sativa. The data set is described as above. The method, boiled down:
as §1

Data set [5] concerns transplanted Oryza sativa. Nature of the data set: Test Example 1: effect on crop, application before weed generation in submerged conditions. Conditions: Application herbicide amount 320 g/ha; Seventeenth Table. The method, boiled down: as §2
The mark [6] stands for this setting: Application herbicide amount 320 g/ha.
The mark [7] stands for this setting: Application herbicide amount 320 g/ha, effect on crop.
[8] abbreviates: application to foliage, application herbicide amount 320 g/ha.

On to `Cc1nnc(NC(=O)c2ccc(C(F)(F)F)n3c(-c4cc(Cl)cc(Cl)c4)nnc23)o1` [1-071], for which the R with Veronica persica (setting [6]) was 3 (Herbicidal ratio of 40% or more and less than 70%). The K with Lolium multiflorum Lam. (setting [6]) is 0 (Herbicidal ratio of 5% or less (almost no effect)). Besides, the O in the data set with Chenopodium album (setting [6]) is given as 5 (Herbicidal ratio of 90% or more (almost completely withered)). The G with Setaria viridis (setting [6]) is recorded as 0 (Herbicidal ratio of 5% or less (almost no effect)). Moreover, the L with Apera spica-venti. (setting [6]) is 0 (Herbicidal ratio of 5% or less (almost no effect)). Further, in the data set on Alopecurus myosuroides (setting [6]), the J is listed as 0 (Herbicidal ratio of 5% or less (almost no effect)). The F with Digitaria ciliaris (setting [6]) is 1 (Herbicidal ratio of 5% or more and less than 20%). Moreover, the I in the data set on Avena fatua (setting [6]) is 0 (Herbicidal ratio of 5% or less (almost no effect)). Moreover, the Q in the data set with Galium spurium (setting [6]) is 1 (Herbicidal ratio of 5% or more and less than 20%). Also, the M with Abutilon theophrasti (setting [6]) is 3 (Herbicidal ratio of 40% or more and less than 70%). Besides, the H in data set [1] (setting [6]) was 0 (Herbicidal ratio of 5% or less (almost no effect)). Also, in data set [2], the “A: Echinochloa oryzicola Vasing. (herbicidal effect grade)” value is 4 (Herbicidal ratio of 70% or more and less than 90%). In addition, the “B: Scirpus juncoides (herbicidal effect grade)” value in the data set with Scirpus juncoides is reported as 5 (Herbicidal ratio of 90% or more (almost completely withered)). Also, the “C: Monochoria vaginalis (herbicidal effect grade)” value with Monochoria vaginalis is 4 (Herbicidal ratio of 70% or more and less than 90%). Besides, in the data set on Zea mays (setting [7]), the b is on record as 0 (Herbicidal ratio of 5% or less (almost no effect)). For the same molecule, the e in the data set on Triticum aestivum (setting [7]) is 0 (Herbicidal ratio of 5% or less (almost no effect)). Also, the f in [3] (setting [7]) was 2 (Herbicidal ratio of 20% or more and less than 40%). Besides, the c in the data set on Glycine max (setting [7]) was 0 (Herbicidal ratio of 5% or less (almost no effect)). In the data set with Brassica campestris L. (setting [7]), the g is recorded as 0 (Herbicidal ratio of 5% or less (almost no effect)). Moreover, the d in data set [4] (setting [7]) is 0 (Herbicidal ratio of 5% or less (almost no effect)). In addition, in data set [5], the “a: transplanted Oryza sativa (effect on crop grade)” value was 0 (Herbicidal ratio of 5% or less (almost no effect)).
On to `Cc1nnc(NC(=O)c2ccc(C(F)(F)F)n3c(CC(=O)O)nnc23)o1` [1-048], for which, in the data set with Veronica persica (setting [8]), the “R (Veronica persica) herbicidal effect” value is 4 (Herbicidal ratio of 70% or more and less than 90%). In the data set with Lolium multiflorum Lam. (setting [8]), the “K (Lolium multiflorum Lam.) herbicidal effect” value was 1 (Herbicidal ratio of 5% or more and less than 20%). In addition, the “O (Chenopodium album) herbicidal effect” value with Chenopodium album (setting [8]) is recorded as 5 (Herbicidal ratio of 90% or more (almost completely withered)). Further, the “G (Setaria viridis) herbicidal effect” value in the data set on Setaria viridis (setting [8]) was 3 (Herbicidal ratio of 40% or more and less than 70%). Moreover, the “L (Apera spica-venti.) herbicidal effect” value in the data set with Apera spica-venti. (setting [8]) was 2 (Herbicidal ratio of 20% or more and less than 40%). For the same molecule, the “J (Alopecurus myosuroides) herbicidal effect” value with Alopecurus myosuroides (setting [8]) was 1 (Herbicidal ratio of 5% or more and less than 20%). For the same molecule, the “F (Digitaria ciliaris) herbicidal effect” value with Digitaria ciliaris (setting [8]) is given as 5 (Herbicidal ratio of 90% or more (almost completely withered)). The “I (Avena fatua) herbicidal effect” value in the data set with Avena fatua (setting [8]) is 2 (Herbicidal ratio of 20% or more and less than 40%). Besides, in the data set with Galium spurium (setting [8]), the “Q (Galium spurium) herbicidal effect” value is 3 (Herbicidal ratio of 40% or more and less than 70%). Moreover, in the data set on Abutilon theophrasti (setting [8]), the “M (Abutilon theophrasti) herbicidal effect” value is on record as 5 (Herbicidal ratio of 90% or more (almost completely withered)). Moreover, in data set [1] (setting [8]), the “H (Echinochloa crus-galli var. crus-galli) herbicidal effect” value is 5 (Herbicidal ratio of 90% or more (almost completely withered)). In data set [2], the “A: Echinochloa oryzicola Vasing. (herbicidal effect grade)” value is 3 (Herbicidal ratio of 40% or more and less than 70%). Further, in the data set with Scirpus juncoides, the “B: Scirpus juncoides (herbicidal effect grade)” value is listed as 0 (Herbicidal ratio of 5% or less (almost no effect)). Moreover, the “C: Monochoria vaginalis (herbicidal effect grade)” value with Monochoria vaginalis was 0 (Herbicidal ratio of 5% or less (almost no effect)). The “b (Zea mays) effect on crop” value in the data set with Zea mays (setting [8]) is recorded as 0 (Herbicidal ratio of 5% or less (almost no effect)). Further, the “e (Triticum aestivum) effect on crop” value in the data set on Triticum aestivum (setting [8]) was 1 (Herbicidal ratio of 5% or more and less than 20%). In [3] (setting [8]), the “f (Beta vulgaris ssp. vulgaris) effect on crop” value is on record as 5 (Herbicidal ratio of 90% or more (almost completely withered)). In addition, the “c (Glycine max) effect on crop” value with Glycine max (setting [8]) is 0 (Herbicidal ratio of 5% or less (almost no effect)). Also, in the data set on Brassica campestris L. (setting [8]), the “g (Brassica campestris L.) effect on crop” value is 4 (Herbicidal ratio of 70% or more and less than 90%). In addition, the “d (directly sowed Oryza sativa) effect on crop” value in [4] (setting [8]) was 4 (Herbicidal ratio of 70% or more and less than 90%). Also, the “a: transplanted Oryza sativa (effect on crop grade)” value in data set [5] is 1 (Herbicidal ratio of 5% or more and less than 20%).
